target: T1, human LPA1 (Homo sapiens, UniProt Q92633); experiment: LPA1 functional antagonist assay (LPA-induced calcium flux); format: cell-based; settings: CHO cells overexpressing human LPA1; inhibition of calcium flux induced by 10 nM LPA; read-out: hLPA1 IC50
T1 construct: expressed in transfected cells; host or cells: Chinese hamster ovary (CHO) cells
Description: The effectiveness of compounds of the present invention as LPA1 inhibitors can be determined in an LPA1 functional antagonist assay as follows:
Chinese hamster ovary cells overexpressing human LPA1 were plated overnight (15,000 cells/well) in poly-D-lysine coated 384-well microplates (Greiner bio-one, Cat #781946) in DMEM/F12 medium (Gibco, Cat #11039). Following overnight culture, cells were loaded with calcium indicator dye (AAT Bioquest Inc, Cat #34601) for 30 minutes at 37° C. The cells were then equilibrated to room temperature for 30 minutes before the assay. Test compounds solubilized in DMSO were transferred to 384 well non-binding surface plates (Corning, Cat #3575) using the Labcyte Echo acoustic dispense and diluted with assay buffer [1×HBSS with calcium/magnesium (Gibco Cat #14025-092), 20 mM HEPES (Gibco Cat #15630-080) and 0.1% fatty acid free BSA (Sigma Cat #A9205)] to a final concentration of 0.5% DMSO. Diluted compounds were added to the cells by FDSS6000 (Hamamatsu) at final concentrations ranging from 0.08 nM to 5 μM. and were then incubated for 20 min at room temperature at which time LPA (Avanti Polar Lipids Cat #857130C) was added at final concentrations of 10 nM to stimulate the cells. The compound IC50 value was defined as the concentration of test compound which inhibited 50% of the calcium flux induced by LPA alone. IC50 values were determined by fitting data to a 4-parameter logistic equation (GraphPad Prism, San Diego CA).

T1 sequence (Q92633 whole entry): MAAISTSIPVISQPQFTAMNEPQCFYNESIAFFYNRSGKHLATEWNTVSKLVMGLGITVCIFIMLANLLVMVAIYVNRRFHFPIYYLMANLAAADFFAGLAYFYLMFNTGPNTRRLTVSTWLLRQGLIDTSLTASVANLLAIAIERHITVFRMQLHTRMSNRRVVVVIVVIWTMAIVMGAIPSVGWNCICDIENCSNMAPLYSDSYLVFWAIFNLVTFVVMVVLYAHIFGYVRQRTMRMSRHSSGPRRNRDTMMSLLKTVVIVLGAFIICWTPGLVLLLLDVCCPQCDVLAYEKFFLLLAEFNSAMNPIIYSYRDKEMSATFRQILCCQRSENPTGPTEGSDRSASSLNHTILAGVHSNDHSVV

Compound | IC50 [nM]
Cc1nc(-c2cnn(C)c2COC(=O)N(C)CC2CCC2)cnc1O[C@H]1CC[C@H](C(=O)O)C1 (racemic) [Example 16, (±)-Trans-3-((5-(5-((((cyclobutylmethyl)(methyl)carbamoyl)oxy)methyl)-1-methyl-1H-pyrazol-4-yl)-3-methylpyrazin-2-yl)oxy)cyclopentanecarboxylic Acid] | 202
Cc1nc(-c2nnn(C)c2COC(=O)N(C)CC(C)C)ccc1O[C@@H]1CC[C@@H](C(=O)O)C1 (racemic) [Example 24, (±)-trans-3-((6-(5-(((isobutyl(methyl)carbamoyl)oxy)methyl)-1-methyl-1H-1,2,3-triazol-4-yl)-2-methylpyridin-3-yl)oxy)cyclopentane carboxylic acid] | 1160
Cc1nc(-c2nnn(C)c2CNC(=O)OCc2ccccc2)ccc1O[C@@H]1CC[C@@H](C(=O)O)C1 (single isomer, unassigned) [Example 21, Trans-3-((6-(5-((((benzyloxy)carbonyl)amino)methyl)-1-methyl-1H-1,2,3-triazol-4-yl)-2-methyl-pyridin-3-yl)oxy)cyclopentane carboxylic acid] | 56
Cc1nc(-c2nnn(C)c2CNc2nccc(C(C)C)n2)ccc1O[C@@H]1CC[C@@H](CC(=O)O)C1 (relative stereo) [Example 40, 2-(trans-3-((6-(5-(((4-isopropylpyrimidin-2-yl)amino)methyl)-1-methyl-1H-1,2,3-triazol-4-yl)-2-methylpyridin-3-yl)oxy)cyclopentyl)acetic acid] | 92
Cc1nc(-c2nnn(C)c2COC(=O)N(C)CC2CCC2)ccc1OC[C@@H]1CC[C@H](C(=O)O)C1 (single isomer, unassigned) [Example 31] | 10.8
Cc1nc(-c2nnn(C)c2CNC(=O)OCc2ccccc2)ccc1O[C@@H]1CC[C@@H](C(=O)O)C1 (racemic) [Example 20, (±)-trans-3-((6-(5-((((benzyloxy)carbonyl)amino)methyl)-1-methyl-1H-1,2,3-triazol-4-yl)-2-methyl-pyridin-3-yl)oxy)cyclopentane carboxylic acid] | 39.7
Cc1nc(-c2nnn(C)c2COC(=O)N(C)CC2CCC2)ccc1O[C@H]1CC[C@H](CC(=O)O)C1 (single isomer, unassigned) [Example 6, (±)-Trans-2-((1,3)-3-((6-(5-((((cyclobutylmethyl)(methyl)carbamoyl)oxy)methyl)-1-methyl-1H-1,2,3-triazol-4-yl)-2-methylpyridin-3-yl)oxy)cyclopentyl) acetic Acid] | 11
Cc1noc(-c2ccc(OC[C@@H]3CC[C@H](C(=O)O)C3)cc2)c1COC(=O)N(C)C1CCCC1 (relative stereo) [Example 41, Cis-3-((4-(4-(((cyclopentyl(methyl)carbamoyl)oxy)methyl)-3-methylisoxazol-5-yl)phenoxy)methyl)cyclopentane-1-carboxylic acid] | 325
CCCCN(C)C(=O)OCc1c(-c2ccc(O[C@H]3CC[C@H](CC(=O)O)C3)c(C)n2)nnn1C (single isomer, unassigned) [Example 4, (±)-Trans-2-(3-((6-(5-(((butyl(methyl)carbamoyl)oxy)methyl)-1-methyl-1H-1,2,3-triazol-4-yl)-2-methylpyridin-3-yl)oxy)cyclopentyl)acetic Acid] | 15
Cc1nc(-c2nnn(C)c2NC(=O)OCC(C)C)ccc1O[C@H]1CC[C@H](CC(=O)O)C1 (racemic) [Example 81, (±)-Trans-2-(3-((6-(5-((isobutoxycarbonyl)amino)-1-methyl-1H-1,2,3-triazol-4-yl)-2-methylpyridin-3-yl)oxy)cyclopentyl)acetic Acid] | 613
Cc1noc(-c2ccc(OC[C@@H]3CC[C@H](C(=O)O)C3)cn2)c1CNc1nccc(-c2ccccn2)n1 (relative stereo) [Example 33, cis-3-(((6-(3-methyl-4-(((4-(pyridin-2-yl)pyrimidin-2-yl)amino)methyl)isoxazol-5-yl)pyridin-3-yl)oxy)methyl)cyclopentane-1-carboxylic acid] | 40
Cc1nc(-c2nnn(C)c2COC(=O)N(C)CC2CCC2)cnc1O[C@@H]1CC[C@@H](C(=O)O)C1 (racemic) [Example 13, (±)-Trans-3-((5-(5-((((cyclobutylmethyl)(methyl)carbamoyl)oxy)methyl)-1-methyl-1H-1,2,3-triazol-4-yl)-3-methylpyrazin-2-yl)oxy)cyclopentanecarboxylic Acid] | 618
Cc1nc(-c2nnn(C)c2COC(=O)N(C)CC2CCC2)ccc1O[C@H]1CC[C@H](CC(=O)O)C1 (single isomer, unassigned) [Example 7, (±)-Trans-2-((1,3)-3-((6-(5-((((cyclobutylmethyl)(methyl)carbamoyl)oxy)methyl)-1-methyl-1H-1,2,3-triazol-4-yl)-2-methylpyridin-3-yl)oxy)cyclopentyl) acetic Acid] | 750
Cc1noc(-c2ccc(OC3CCC(C(=O)O)C3)cn2)c1CNc1nccc(-c2ccccc2)n1 (single isomer, unassigned) [Example 46] | 56
Cc1nc(-c2cnn(C)c2CNC(=O)OCc2ccccc2)cnc1O[C@H]1CC[C@H](C(=O)O)C1 (single isomer, unassigned) [Example 19, Trans-3-((5-(5-((((benzyloxy)carbonyl)amino)methyl)-1-methyl-1H-pyrazol-4-yl)-3-methylpyrazin-2-yl)oxy)cyclopentanecarboxylic Acid] | 202

Other lines, results leading:

IC50 [nM] | Compound
292 | CCCN(C)C(=O)OCc1c(-c2ccc(O[C@H]3CC[C@H](CC(=O)O)C3)c(C)n2)nnn1C (racemic) [Example 54, (±)-trans-2-[3-({2-methyl-6-[1-methyl-5-({[methyl(propyl)carba-moyl]oxy}methyl)-1H-1,2,3-triazol-4-yl]pyridin-3-yl}oxy)cyclopentyl]acetic acid]
108 | Cc1nc(-c2nnn(C)c2CNc2noc(CCC3CCC3)n2)ccc1O[C@H]1CC[C@H](CC(=O)O)C1 (racemic) [Example 80, (±)-2-(3-((6-(5-(((5-(2-cyclobutylethyl)-1,2,4-oxadiazol-3-yl)amino)methyl)-1-methyl-1H-1,2,3-triazol-4-yl)-2-methylpyridin-3-yl)oxy)cyclopentyl)acetic Acid]
165 | Cc1nc(-c2nnn(C)c2COC(=O)N(C)CCCCF)ccc1O[C@H]1CC[C@H](CC(=O)O)C1 (racemic) [Example 64, (±)-trans-2-[3-({6-[5-({[(4-fluoro-butyl)(methyl)carbamoyl]oxy}methyl)-1-methyl-1H-1,2,3-triazol-4-yl]-2-methylpyridin-3-yl}oxy)cyclo-pentyl]acetic acid]
452 | Cc1nc(-c2nnn(C)c2COC(=O)N2CC3(CCC3)C2)ccc1O[C@H]1CC[C@H](CC(=O)O)C1 (racemic) [Example 66, (±)-trans-2-[3-({6-[5-({2-azaspiro[3.3]heptane-2-carbonyloxy}methyl)-1-methyl-1H-1,2,3-triazol-4-yl]-2-methylpyridin-3-yl}oxy)cyclopentyl]acetic acid]
24 | Cc1nc(-c2onc(C)c2COC(=O)N(C)C2CCCC2)ccc1O[C@H]1CC[C@H](C(C)C(=O)O)C1 (mixture of isomers) [Example 51, (±)-trans-2-[3-({6-[4-({[cyclopentyl(methyl)carbamoyl]oxy}methyl)-3-methyl-1,2-oxazol-5-yl]-2-methyl-pyridin-3-yl}oxy)cyclopentyl]propanoic acid]
40 | Cc1nc(-c2onc(C)c2COC(=O)N(C)C2CCCC2)ccc1O[C@H]1CC[C@@H](C(=O)O)C1 (racemic) [Example 76, (±)-cis-3-({6-[4-({[cyclopentyl(methyl)carbamoyl]oxy}methyl)-3-methyl-1,2-oxazol-5-yl]-2-methyl-pyridin-3-yl}oxy)cyclopentane-1-carboxylic acid]
28 | Cc1nc(-c2nnn(C)c2COC(=O)N(C)CC2CCC2)ccc1O[C@H]1CC[C@H](C(=O)O)C1 (single isomer, unassigned) [Example 78, Trans-(1,3)-3-({6-[5-({[(cyclobutyl-methyl)(methyl)carbamoyl]oxy}methyl)-1-methyl-1H-1,2,3-triazol-4-yl]-2-methylpyridin-3-yl}oxy)cyclopentane-1-carboxylic acid]
944 | Cc1nc(-c2nnn(C)c2COC(=O)N(C)CCCF)ccc1O[C@H]1CC[C@H](CC(=O)O)C1 (racemic) [Example 65, (±)-trans-2-[3-({6-[5-({[(3-fluoro-propyl)(methyl)carbamoyl]oxy}methyl)-1-methyl-1H-1,2,3-triazol-4-yl]-2-methylpyridin-3-yl}oxy)cyclo-pentyl]acetic acid]
48 | CCCCN(C)C(=O)OCc1c(-c2ccc(O[C@@H]3CC[C@@H](CC(=O)O)C3)c(CC)n2)nnn1C (racemic) [Example 86, (±)-2-((trans)-3-((6-(5-(((butyl(methyl)carbamoyl)oxy)methyl)-1-methyl-1H-1,2,3-triazol-4-yl)-2-ethylpyridin-3-yl)oxy)cyclopentyl)acetic acid]

Source: patent publication US12209072B2, “Cyclopentyl acids as LPA antagonists” (BRISTOL-MYERS SQUIBB COMPANY, priority 2018, dated 2025)
